Assay results published in patent US12370235B2, “Synthetic, non-natural antimicrobial peptides inspired by Staphylococcus auricularis delta toxin” (University of Saskatchewan, priority 2021, dated 2025).
Ends that are not written are not given here.

Legend:
C. albicans MYA-2876 = test: MIC, YPD broth; format: cell-based, Candida albicans; conditions: Table 8
Outline: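 Yeast cells were diluted in YPD broth, and 180 μl aliquots were mixed with 20 μl of peptide from 2-fold serial dilutions in flat-bottom 96-well microtitre plates. Wells receiving 20 μl sterile water served as controls. After standing incubation overnight at 37° C, the MIC was taken as the lowest peptide concentration with no visible microbial growth.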

Kodamae ohmeri AR 396 = test: MIC, YPD broth, CDC and FDA AR Candida isolate panel; format: cell-based; conditions: Table 9 below the line: only 200 or 100 μg/mL tested; values reported as 100 are ≤100 μg/mL
Outline: (§1)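 Peptide purity was 95%. Doubling dilutions were tested against yeast set at an optical density of […], with overnight standing incubation at 37° C and a sterile-water control.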

[1] = test system: Candida haemulonii AR 393; test: as above; format: cell-based; conditions: Table 9 below the line: only 200 or 100 μg/mL tested; values reported as 100 are ≤100 μg/mL
Outline: as §1

Candida krusei AR 397 = test: as above; format: cell-based; conditions: Table 9 below the line: only 200 or 100 μg/mL tested; values reported as 100 are ≤100 μg/mL
Outline: as §1

[2] = test system: Candida duobushaemulonii AR 392; test: as above; format: cell-based; conditions: Table 9 below the line: only 200 or 100 μg/mL tested; values reported as 100 are ≤100 μg/mL
Outline: as §1

[3] = test system: Saccharomyces cerevisiae AR 399; test: as above; format: cell-based; conditions: Table 9 below the line: only 200 or 100 μg/mL tested; values reported as 100 are ≤100 μg/mL
Outline: as §1

[4] = test system: Saccharomyces cerevisiae AR 400; test: as above; format: cell-based; conditions: Table 9 below the line: only 200 or 100 μg/mL tested; values reported as 100 are ≤100 μg/mL
Outline: as §1

[5] = test system: Candida haemulonii AR 395; test: as above; format: cell-based; conditions: Table 9 below the line: only 200 or 100 μg/mL tested; values reported as 100 are ≤100 μg/mL
Outline: as §1

[6] = test system: Candida duobushaemulonii AR 394; test: as above; format: cell-based; conditions: Table 9 below the line: only 200 or 100 μg/mL tested; values reported as 100 are ≤100 μg/mL
Outline: as §1

[7] = test system: Candida lusitaniae AR 398; test: as above; format: cell-based; conditions: Table 9 below the line: only 200 or 100 μg/mL tested; values reported as 100 are ≤100 μg/mL
Outline: as §1

[8] = test system: Candida duobushaemulonii AR 391; test: as above; format: cell-based; conditions: Table 9 below the line: only 200 or 100 μg/mL tested; values reported as 100 are ≤100 μg/mL
Outline: as §1

[9] = test system: S. aureus ATCC BAA-42 (MRSA SCCmec type VI); test: MIC, broth dilution; format: cell-based, Staphylococcus aureus; conditions: Table 5; STIP3 variants, highest concentration 100 μg/mL
Outline: (§2)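 MIC defined as the lowest peptide level giving no growth after overnight standing incubation at 37° C. Bacteria at OD 6×10^−4 in cation-adjusted MH broth met 2-fold serial peptide dilutions; peptide purity 95%.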

[10] = test system: S. aureus ATCC BAA-2094 (MRSA SCCmec type V); test: MIC, broth dilution; format: cell-based, Staphylococcus aureus; conditions: Table 5; STIP3 variants, highest concentration 100 μg/mL
Outline: as §2

[11] = test system: S. aureus ATCC BAA-1683 (MRSA SCCmec type IV); test: MIC, broth dilution; format: cell-based, Staphylococcus aureus; conditions: Table 5; STIP3 variants, highest concentration 100 μg/mL
Outline: as §2

S. aureus ATCC 29213 = test: MIC, broth dilution; format: cell-based, Staphylococcus aureus; conditions: Table 5; STIP3 variants, highest concentration 100 μg/mL
Outline: as §2

[12] = test system: S. aureus ATCC BAA-41 (MRSA SCCmec type II); test: MIC, broth dilution; format: cell-based, Staphylococcus aureus; conditions: Table 5; STIP3 variants, highest concentration 100 μg/mL
Outline: as §2

[13] = test system: S. aureus ATCC BAA-44 (MRSA SCCmec type I); test: MIC, broth dilution; format: cell-based, Staphylococcus aureus; conditions: Table 5; STIP3 variants, highest concentration 100 μg/mL
Outline: as §2

[14] = test system: S. aureus ATCC BAA-2313 (MRSA SCCmec type XI); test: MIC, broth dilution; format: cell-based, Staphylococcus aureus; conditions: Table 5; STIP3 variants, highest concentration 100 μg/mL
Outline: as §2

[15] = test system: S. aureus ATCC 33592 (MRSA SCCmec type III); test: MIC, broth dilution; format: cell-based, Staphylococcus aureus; conditions: Table 5; STIP3 variants, highest concentration 100 μg/mL
Outline: as §2

[16] = test system: Mannheimia haemolytica ATCC 33393; test: MIC, broth dilution; format: cell-based; conditions: Table 11; highest concentration 25 μg/mL
Outline: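 Read-out is the lowest peptide concentration showing no growth after an overnight standing culture at 37 °C. Two-fold serial dilutions of 95%-pure peptide were tested against M. haemolytica ATCC 33393 at OD 6×10^−4 in cation-adjusted MH broth.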

Row | Sequence | MIC C. albicans MYA-2876 (C. albicans MYA-2876) | MIC (μg/mL) Kodamae ohmeri AR 396 (Kodamae ohmeri AR 396) | MIC (μg/mL) Candida haemulonii AR 393 [1] | MIC (μg/mL) Candida krusei AR 397 (Candida krusei AR 397) | MIC (μg/mL) Candida duobushaemulonii AR 392 [2] | MIC (μg/mL) Saccharomyces cerevisiae AR 399 [3] | MIC (μg/mL) Saccharomyces cerevisiae AR 400 [4] | MIC (μg/mL) Candida haemulonii AR 395 [5] | MIC (μg/mL) Candida duobushaemulonii AR 394 [6] | MIC (μg/mL) Candida lusitaniae AR 398 [7] | MIC (μg/mL) Candida duobushaemulonii AR 391 [8] | MIC S. aureus ATCC BAA 42 (VI) [9] | MIC S. aureus ATCC BAA 2094 (V) [10] | MIC S. aureus ATCC BAA 1683 (IV) [11] | MIC S. aureus ATCC 29213 (S. aureus ATCC 29213) | MIC S. aureus ATCC BAA 41 (II) [12] | MIC S. aureus ATCC BAA 44 (I) [13] | MIC S. aureus ATCC BAA 2313 (XI) [14] | MIC S. aureus ATCC 33592 (III) [15] | MIC (μg/mL) M. haemolytica [16]
1 | TVGGLVKWILDWVKKFA [STIP3-10, TVGGLVKWILDWVKKFA] | 50 µg/mL | > (values below the line were determined using two concentrations of peptide 200 or 100 μg/mL) | > (values below the line were determined using two concentrations of peptide 200 or 100 μg/mL) | > (values below the line were determined using two concentrations of peptide 200 or 100 μg/mL) | > (values below the line were determined using two concentrations of peptide 200 or 100 μg/mL) | > (values below the line were determined using two concentrations of peptide 200 or 100 μg/mL) | ≤ 100 µg/mL | > (values below the line were determined using two concentrations of peptide 200 or 100 μg/mL) | > (values below the line were determined using two concentrations of peptide 200 or 100 μg/mL) | > (values below the line were determined using two concentrations of peptide 200 or 100 μg/mL) | > (values below the line were determined using two concentrations of peptide 200 or 100 μg/mL) | 25 µg/mL | 100 µg/mL | > (no inhibition was observed at the highest concentration of peptide tested: 100 μg/mL for the STIP3 variants) | 100 µg/mL | 100 µg/mL | 200 µg/mL | 50 µg/mL | 100 µg/mL | > (> symbol indicates that no inhibition was observed at the highest concentration of peptide tested: 25 μg/mL)
2 | TVGGLVKWILNTVKKFA [STIP3-4, TVGGLVKWILNTVKKFA] | 12.5 µg/mL | > (values below the line were determined using two concentrations of peptide 200 or 100 μg/mL) | > (values below the line were determined using two concentrations of peptide 200 or 100 μg/mL) | ≤ 100 µg/mL | > (values below the line were determined using two concentrations of peptide 200 or 100 μg/mL) | ≤ 100 µg/mL | ≤ 100 µg/mL | > (values below the line were determined using two concentrations of peptide 200 or 100 μg/mL) | > (values below the line were determined using two concentrations of peptide 200 or 100 μg/mL) | ≤ 100 µg/mL | > (values below the line were determined using two concentrations of peptide 200 or 100 μg/mL) | 50 µg/mL | 50 µg/mL | 100 µg/mL | 100 µg/mL | 50 µg/mL | 50 µg/mL | 100 µg/mL | 50 µg/mL | 25 µg/mL
3 | TVGGLVKWILDVVKKFA [STIP3-9, TVGGLVKWILDVVKKFA] | 50 µg/mL | > (values below the line were determined using two concentrations of peptide 200 or 100 μg/mL) | > (values below the line were determined using two concentrations of peptide 200 or 100 μg/mL) | ≤ 100 µg/mL | > (values below the line were determined using two concentrations of peptide 200 or 100 μg/mL) | ≤ 100 µg/mL | ≤ 100 µg/mL | > (values below the line were determined using two concentrations of peptide 200 or 100 μg/mL) | > (values below the line were determined using two concentrations of peptide 200 or 100 μg/mL) | ≤ 100 µg/mL | > (values below the line were determined using two concentrations of peptide 200 or 100 μg/mL) | 25 µg/mL | 25 µg/mL | 25 µg/mL | 25 µg/mL | 35 µg/mL | 25 µg/mL | 25 µg/mL | 25 µg/mL | 25 µg/mL
4 | TVAGLVKWILATVKKFA [STIP3-15, TVAGLVKWILATVKKFA] | 25 µg/mL | ≤ 100 µg/mL | > (values below the line were determined using two concentrations of peptide 200 or 100 μg/mL) | ≤ 100 µg/mL | > (values below the line were determined using two concentrations of peptide 200 or 100 μg/mL) | ≤ 100 µg/mL | ≤ 100 µg/mL | > (values below the line were determined using two concentrations of peptide 200 or 100 μg/mL) | > (values below the line were determined using two concentrations of peptide 200 or 100 μg/mL) | ≤ 100 µg/mL | > (values below the line were determined using two concentrations of peptide 200 or 100 μg/mL) | 50 µg/mL | 25 µg/mL | 25 µg/mL | 25 µg/mL | 50 µg/mL | 25 µg/mL | 50 µg/mL | 12.5 µg/mL | 25 µg/mL
